Data taken from US9212206B1, “4-Fluoro-Thio-containing inhibitors of APP2, compositions thereof and method of use” (priority 2014, dated 2015).

Key:
[1] = biological target: Human recombinant angiotensin-converting enzyme (hrACE) (Homo sapiens (Human), UniProt P12821); experiment: Determination of human ACE activity (quenched fluorescent substrate ES005); assay type: biochemical; conditions: for IC50: hrACE, substrate below Km, pH 7.4, 30° C., read-out: Binding affinity (IC50) ACE
Experimental: Human recombinant angiotensin-converting enzyme (hrACE) was obtained from R&D Systems (Minneapolis, Minn.). Its enzyme activity was determined using the internally quenched fluorescent substrate ES005: (7-methoxycoumarin-4-yl)acetyl-Arg-Pro-Pro-Gly-Phe-Ser-Ala-Phe-(2,4-dinitrophenyl)-Lys (R&D Systems, Minneapolis, Minn.). The assay buffer was 0.1 M HEPES, pH 7.4, and the temperature was 30° C. The substrate concentration was below Km (≦40 μM). Enzyme rates were determined in an Fmax fluorescence plate reader (Molecular Devices, Sunnyvale, Calif.) using an excitation wavelength of 320 nm and an emission wavelength of 405 nm. The binding affinity of an inhibitor was estimated and expressed as IC50 values (the concentration that inhibits activity by 50%).

[2] = biological target: Human aminopeptidase P2 (APP2) (Homo sapiens (Human), UniProt O43895); experiment: Determination of human APP2 activity (quenched fluorescent substrate); assay type: biochemical; conditions: for IC50: purified human kidney APP2, substrate 1 μM (=Km), pH 7.4, 30° C., read-out: Binding affinity (IC50) APP2; for IC50 ratio ACE/APP2: selectivity, ratio of IC50s for ACE/APP2
Experimental: Human kidney tissue, which was obtained from the Cooperative Human Tissue Network, was the source of purified human APP2 as used herein. APP2 enzyme activity was measured during purification as described in Example 2B below. The membrane-bound APP2 was purified from human kidney tissue using the following steps: 1) kidney tissue was homogenized in 30 volumes of buffer containing Triton X-100 detergent and centrifuged; 2) the pellet was washed and suspended in buffer containing octyl-β-D-glucopyranoside detergent, and then centrifuged; 3) the supernatant was treated with 10 units of phosphatidylinositol-specific phospholipase C (Invitrogen, Eugene, Ga.) to remove the hydrophobic part of the glycosyl-phosphatidylinositol lipid membrane anchor from APP2, and then dialyzed; 4) the dialysate was passed through an octyl-Sepharose chromatography column; 5) the eluent was centrifuged and then concentrated by ultrafiltration in Amicon Ultra-15 Ultracel-10 k filters (Millipore Corp, Billerica, Mass.); 6) the retentate was dialyzed and applied to a HiTrap Q-Sepharose XL ion exchange chromatography column. Human APP2 enzyme activity was eluted with a linear KCl salt gradient.
Human aminopeptidase P2 (APP2) enzyme activity was determined using the internally quenched fluorescent substrate: H-Lys(2-aminobenzoyl)-Pro-Pro-p-nitroanilide (Bachem, Torrance, Calif.) at 1 μM (=Km) for inhibitor studies and 5 μM for enzyme purification assays. The assay buffer was 0.1 M HEPES, pH 7.4, and the assay temperature was 30° C. Cleavage of the substrate by the enzyme produces an increase in fluorescence due to the release of H-Lys(2-aminobenzoyl). Enzyme rates were determined in an F. fluorescence plate reader (Molecular Devices, Sunnyvale, Calif.) using an excitation wavelength of 320 nm and an emission wavelength of 405 nm. The binding affinity of an inhibitor was estimated and expressed as IC50 values (the concentration that inhibits activity by 50%).

[3] = system: Male CD-1(ICR) mice; experiment: Bilateral renal ischemia/reperfusion in mice; assay type: in vivo, mouse; conditions: for reduction of blood urea nitrogen (BUN) compared to saline: i.v. 5 min before reperfusion after 25 min ischemia, BUN after 2 days of reperfusion, apstatin 1.8 mg/kg, ST-115 10 μg/kg; for mice that died before the prespecified 2-day BUN measurement point: saline control 29% died early
Experimental: Previous studies have shown that the prototype APP2 inhibitor apstatin can greatly reduce ischemia/reperfusion damage in the heart. […] In this study, blood flow to both kidneys of the mouse was blocked for 25 min., producing ischemia. Blood flow was then restored (reperfusion). In order to determine the effects of inhibiting APP2 in this model of kidney damage, apstatin, ST-115, or saline (control) were administered intravenously 5 min. before reperfusion. After two days of reperfusion, blood urea nitrogen (BUN, a marker of kidney dysfunction) was measured. In FIG. 1, data are presented as the mean±standard error of the mean. Each drug was separately compared to the control by the unpaired t-test with Welch's correction. ** Apstatin vs. Saline, p<0.01; *** ST-115 vs. Saline, p<0.001.
Male CD-1(ICR) mice (36-47 g) from Harlan Laboratories (Indianapolis, Ind.) were used. Each mouse was anesthetized by the subcutaneous injection of 50 mg/kg sodium pentobarbital (Akorn Inc, Lake Forest, Ill.) and placed on a 37° C. warmer. For surgery, the abdomen was shaved and the mouse was moved to a warming plate with feedback temperature control (TCAT-2DF, Harvard Apparatus Holliston, Mass.). The body temperature of the mouse was maintained at 36.9±0.1° C. throughout the procedure. The skin of the abdomen was washed with alcohol, and a midline incision was made to expose the kidneys. After removing adipose tissue from the renal pedicles, a microaneurysm clamp was placed on each pedicle to block blood flow to/from both kidneys for 25 min. (referred to as the ischemia phase). At the 20 min. point, 0.15 ml of either saline or saline containing drug (apstatin or ST-115) was administered intravenously through the femoral vein. The doses were 1.8 mg/kg for apstatin and 10 μg/kg for ST-115. At 5 minutes after drug injection, the clamps were removed from the pedicles to restore blood flow to/from the kidneys (the reperfusion phase). After confirming reperfusion, a subcutaneous injection of saline was administered in the upper thigh for rehydration, and the incision was sutured closed. Regulated temperature control was maintained for at least the first 0.5 hours of reperfusion. The mouse was then placed on a 37° C. warmer to recover from the anesthetic and then moved to the home cage. After 2 days of reperfusion, the mouse was sacrificed by exsanguination. The blood was allowed to clot and then centrifuged to obtain serum. The serum was assayed for its concentration of urea (Blood Urea Nitrogen—BUN), a marker of kidney damage, using a kit from Stanbio (Boerne, Tex.). […] The BUN data points (20) were analyzed by comparing the values for each drug with those of the saline control using the unpaired t-test with Welch's correction (Graphpad Prism statistical package, La Jolla, Calif.).

[4] = system: isolated perfused heart; conditions: ischemia/reperfusion (Ersahin et al. 1999); cited from earlier work

Chain of Human aminopeptidase P2 (APP2) (O43895 22-674): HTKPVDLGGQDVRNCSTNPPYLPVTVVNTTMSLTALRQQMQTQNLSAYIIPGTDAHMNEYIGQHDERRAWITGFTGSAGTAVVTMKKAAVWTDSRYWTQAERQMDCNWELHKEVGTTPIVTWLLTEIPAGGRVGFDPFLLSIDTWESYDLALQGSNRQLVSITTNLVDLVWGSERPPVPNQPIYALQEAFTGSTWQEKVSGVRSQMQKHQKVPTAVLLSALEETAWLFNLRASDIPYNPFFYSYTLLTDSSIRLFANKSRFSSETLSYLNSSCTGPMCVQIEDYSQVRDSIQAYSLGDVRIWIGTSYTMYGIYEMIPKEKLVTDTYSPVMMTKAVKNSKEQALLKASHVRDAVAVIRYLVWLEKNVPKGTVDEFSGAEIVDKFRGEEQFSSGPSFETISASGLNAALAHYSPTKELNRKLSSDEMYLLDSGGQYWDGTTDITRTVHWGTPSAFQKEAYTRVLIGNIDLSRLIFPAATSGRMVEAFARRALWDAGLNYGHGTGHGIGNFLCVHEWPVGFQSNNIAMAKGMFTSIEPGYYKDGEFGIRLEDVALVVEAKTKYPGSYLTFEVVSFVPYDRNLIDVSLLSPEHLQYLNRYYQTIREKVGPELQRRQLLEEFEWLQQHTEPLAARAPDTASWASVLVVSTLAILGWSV
Chain of Human recombinant angiotensin-converting enzyme (hrACE) (P12821 30-1306): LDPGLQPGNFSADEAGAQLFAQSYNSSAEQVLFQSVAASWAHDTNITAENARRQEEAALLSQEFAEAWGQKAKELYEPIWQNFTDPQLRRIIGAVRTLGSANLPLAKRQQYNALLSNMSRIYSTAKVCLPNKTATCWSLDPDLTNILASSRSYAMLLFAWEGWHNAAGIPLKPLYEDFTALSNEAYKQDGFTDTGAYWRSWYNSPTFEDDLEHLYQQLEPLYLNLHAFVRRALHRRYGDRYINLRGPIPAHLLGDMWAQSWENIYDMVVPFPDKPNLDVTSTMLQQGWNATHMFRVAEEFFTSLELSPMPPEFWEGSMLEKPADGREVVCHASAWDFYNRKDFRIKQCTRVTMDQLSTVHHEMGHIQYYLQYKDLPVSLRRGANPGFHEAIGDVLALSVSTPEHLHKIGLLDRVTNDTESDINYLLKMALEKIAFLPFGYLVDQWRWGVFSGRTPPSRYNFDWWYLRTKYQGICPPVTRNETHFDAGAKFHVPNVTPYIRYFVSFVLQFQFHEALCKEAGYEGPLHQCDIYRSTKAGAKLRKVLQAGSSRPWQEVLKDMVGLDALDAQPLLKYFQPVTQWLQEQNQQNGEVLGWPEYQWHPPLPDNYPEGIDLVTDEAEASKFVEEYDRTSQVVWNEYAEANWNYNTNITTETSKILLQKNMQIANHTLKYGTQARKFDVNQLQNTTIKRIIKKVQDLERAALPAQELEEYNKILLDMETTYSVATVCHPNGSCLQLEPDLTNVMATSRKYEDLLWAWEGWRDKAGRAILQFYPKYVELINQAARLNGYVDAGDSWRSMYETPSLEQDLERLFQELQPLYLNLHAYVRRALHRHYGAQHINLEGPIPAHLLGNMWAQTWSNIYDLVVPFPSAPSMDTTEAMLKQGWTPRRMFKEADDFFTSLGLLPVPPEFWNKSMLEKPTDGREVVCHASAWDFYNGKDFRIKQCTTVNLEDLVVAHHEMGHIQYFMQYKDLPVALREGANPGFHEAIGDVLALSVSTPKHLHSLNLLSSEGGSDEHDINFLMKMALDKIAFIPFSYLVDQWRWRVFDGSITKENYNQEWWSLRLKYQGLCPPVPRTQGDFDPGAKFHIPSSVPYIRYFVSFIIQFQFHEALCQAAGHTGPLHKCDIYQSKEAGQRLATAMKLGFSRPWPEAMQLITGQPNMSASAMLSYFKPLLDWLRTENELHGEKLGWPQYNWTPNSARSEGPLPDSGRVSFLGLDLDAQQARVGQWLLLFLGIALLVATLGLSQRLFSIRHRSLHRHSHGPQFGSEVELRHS

Structure (SMILES)	IC50 [1] [nM]	IC50 [2] [nM]	IC50 ratio ACE/APP2 [2]	IC50 for human ACE [1]	IC50 for human APP2 [2] [nM/L]	reduction of blood urea nitrogen (BUN) compared to saline [3] [%]	mice that died before the prespecified 2-day BUN measurement point [3]	reduction of cardiac damage [4] [%]
CC(C)C[C@H](S)C(=O)N1C[C@@H](F)C[C@H]1C(=O)N1CCC[C@H]1C(=O)N1CC[C@@H](C(=O)O)C1 [Formula III, [(S)-2-mercapto-4-methylpentanoyl]-4(S)-fluoro-Pro-Pro-[(3R)-β-Pro]-OH]	68000	3.7	18,000	68,000 nM/L	3.7	56	no apstatin or ST-115 treated mice died early	
C[C@H](NC(=O)[C@@H]1CCCN1C(=O)[C@@H]1CCCN1C(=O)[C@@H](O)[C@H](N)Cc1ccccc1)C(N)=O [apstatin]						49	no apstatin or ST-115 treated mice died early	74

Second part, led by results:

IC50 [1] [nM]	IC50 [2] [nM]	IC50 ratio ACE/APP2 [2]	Structure (SMILES)	IC50 for human ACE [1]	IC50 for human APP2 [2] [nM/L]	reduction of blood urea nitrogen (BUN) compared to saline [3] [%]	mice that died before the prespecified 2-day BUN measurement point [3]	reduction of cardiac damage [4] [%]
640	3.9	160	CC(C)C[C@H](S)C(=O)N1CCC[C@H]1C(=O)N1CCC[C@H]1C(=O)N(C)[C@@H](C)C(=O)O [Formula VII]					
12000	9.7	1,200	CC(C)C[C@H](S)C(=O)N1CCC[C@H]1C(=O)N1CCC[C@H]1C(=O)N1CCC[C@@H]1C(=O)O [Formula VI]					
49000	26	1,900	CC(C)C[C@H](S)C(=O)N1CCC[C@H]1C(=O)N1CCC[C@H]1C(=O)N1CC[C@H](C(=O)O)C1 [Formula V]					
